Assay results: patent publication US20200270588A1, “GLUCOSYL TRANSFERASE POLYPEPTIDES AND METHODS OF USE” (Syngenta Participations AG, priority 2017, published 2020)
“And” between values parts separate entries of the source, which are not always exact repeats. Equal values may be shown once.

What was measured:
[1] = target: T1, Zea mays bx8 glucosyl transferase (his tagged SEQ ID NO: 2) (Zea mays, UniProt Q8W2B7); assay: UDP-Glo glucosyl transferase assay, purified enzyme; type: biochemical; conditions: for Activity: herbicide 0.500 mM, N-terminally his tagged, limit of detection about 0.001
T1 construct: His tag (N); made in house; host or cells: E. coli BL21 (DE3), pET24a
T1 sequence (Q8W2B7 1-459): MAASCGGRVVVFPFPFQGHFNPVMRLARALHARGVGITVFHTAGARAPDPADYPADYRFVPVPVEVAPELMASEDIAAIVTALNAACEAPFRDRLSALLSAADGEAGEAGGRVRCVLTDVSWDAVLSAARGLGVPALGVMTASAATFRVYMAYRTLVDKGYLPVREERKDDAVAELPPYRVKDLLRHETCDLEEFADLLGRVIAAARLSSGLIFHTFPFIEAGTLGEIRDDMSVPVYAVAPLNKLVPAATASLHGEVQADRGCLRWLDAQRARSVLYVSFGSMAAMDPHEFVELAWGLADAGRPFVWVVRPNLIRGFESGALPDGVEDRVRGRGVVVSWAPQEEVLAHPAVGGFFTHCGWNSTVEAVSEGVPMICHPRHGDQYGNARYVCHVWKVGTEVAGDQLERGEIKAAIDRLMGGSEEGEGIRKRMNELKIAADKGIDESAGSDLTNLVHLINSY
Description: Glucosyl transferase activity is assayed via measurement of acceptor substrate-dependent production of UDP from ultrapure UDP-glucose using the Promega UDP-Glo™ method and according to the manufacturer's instructions. Assays are run in 96 well microtiter plates.
Enzyme, typically at a stock concentration of ˜2 mg/ml is diluted to an appropriate concentration in 50 mM K^+ Hepes buffer at pH7.5 containing 0.5 mg/mL bovine serum albumin (BSA) and 5 ul aliquots of this diluted enzyme added to each well of a Perkin Elmer white ½ area 96 well plate. […] Assays are run for an appropriate time (usually 10 to 60 min) so that the amount of UDP formed lies within the most nearly linear part of the UDP standard curve and are stopped with the addition and mixing of 25 ul UDP-Glo™ detection reagent (prepared as described below). Plates are then incubated at room temperature for 60 minutes and then read in a luminescence plate reader (Perkin Elmer Envision 2130 Multilabel Reader). A UDP standard curve is run alongside each set of assays and reagent blank control assays run with DMSO in place of test herbicide. Typically, 300 pmol of UDP corresponds to a Relative Luminescence Unit (RLU) reading of about 1.5E7 and the response curve between 0 and 600 pmol is fitted to a polynomial function (see for example FIG. 2).
The UDP-Glo™ reagents are made up and used according to the manufacturer's instructions. Thus, Nucleotide Detection Buffer and ATP are combined to make nucleotide detection reagent (NDR) dispensed into aliquots and frozen to be freshly thawed before use.
Km and kcat values in respect of UDP-glucose are derived by carrying out experiments to measure initial rates over a suitable range of concentrations of UDP glucose out at a fixed near saturating concentration of acceptor substrate. Best fit values of kcat, Km and kcat/Km are obtained by direct fitting of the data to the Michaelis-Menten equation using Graphpad Prism™ software.
The glucosyl transferase activities of the mutant bx8-derived polypeptides expressed in these strains were initially assayed versus herbicide V as described in Example 1. The partly purified C-terminally his tagged w/t bx8 enzyme (SEQ ID No: 2) catalyzed glucosyl transfer to herbicide V at a low rate estimated to be less than about 0.002/s at 1 mM herbicide V which, because of a relatively high background of UDP formation in the DMSO (no substrate reagent control) was difficult to quantify using the luminescence assay. Thus further assays were run by LC/MS using which technique the formation of an O-beta glucosyl glucoside of herbicide V could more easily be confirmed but only quantified in a relative sense. Thus the various derivatives of C-terminally his tagged Zea mays bx8 SEQ ID No:2 were cloned and expressed in E. coli BL21 (DE3) as described in Example 1 and assayed in plates as crude extracts, as in Example 2, but monitored by LCMS rather than the luminescence assay.
Assays were carried out as described in Example 1. Partly purified C-terminally his tagged w/t Larkspur enzyme (SEQ ID No 10 with a 6 amino acid C-terminal tag) catalyzed glucosyl transfer to herbicide V at a rate estimated to be about 0.0065/s/pmol at 1 mM herbicide V. The similarly-tagged w/t bx-like enzymes from rye (SEQ ID No 11) and from wheat (SEQ ID No 4) were also active but only at levels close to the detection limit at ˜0.0015/s/pmol. Further examples of assay results from further experiments are depicted in Table 14. […]

[2] = target: T2, SEQ ID 36, mutant bx-type glucosyl transferase (Zea mays, UniProt Q8W2B7, M283F/S121V/S338K); assay: LC/MS glucosyl transferase assay (glucoside peak area), purified enzyme; type: biochemical; conditions: about 60 min, ~15 pmol enzyme, relative quantification only
T2 construct: 36; 6.03E+06; 6.40E+09; 1.75E+08; His tag; made in house
T2 sequence (Q8W2B7 whole entry S121V/M283F/S338K): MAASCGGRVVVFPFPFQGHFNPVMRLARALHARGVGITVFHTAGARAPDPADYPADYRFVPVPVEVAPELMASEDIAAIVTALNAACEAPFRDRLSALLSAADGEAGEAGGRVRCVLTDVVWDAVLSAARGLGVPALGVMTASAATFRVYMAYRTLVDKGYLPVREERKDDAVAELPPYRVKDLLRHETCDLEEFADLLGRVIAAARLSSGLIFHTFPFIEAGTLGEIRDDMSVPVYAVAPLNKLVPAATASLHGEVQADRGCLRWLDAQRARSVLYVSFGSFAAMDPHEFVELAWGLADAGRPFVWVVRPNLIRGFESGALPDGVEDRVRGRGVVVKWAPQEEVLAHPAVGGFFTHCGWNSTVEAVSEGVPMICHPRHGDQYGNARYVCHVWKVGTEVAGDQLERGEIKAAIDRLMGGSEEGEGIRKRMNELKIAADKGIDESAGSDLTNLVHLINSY
Description: In an alternative method for assaying the various enzymes, the test glucosyl transferase enzyme is reacted with substrates exactly as above except that the assay is stopped by adding an equal volume of acetonitrile. Alternatively 50 or 100 μl samples from assay reactions are added to 500 μl ethyl acetate to stop the reaction. In this case samples are then vortexed and 400 μl of the ethyl acetate partition removed, dried down, and resuspended in 100 μl 80:20 acetonitrile/water. The formation of product gluco side and/or disappearance of substrate test herbicide is then monitored directly by LC/MS. Samples are analyzed by LC-MS using an Agilent 1290 liquid chromatography system and Thermo Q-Exactive mass spectrometer. The chromatography is achieved on a Waters Acquity C18 BEH (50×2.1 mm) 1.7 μm particle size column, using a 6 minute gradient run of Water (0.2% formic acid) and Acetonitrile. The Q-Exactive is operated in positive ionisation electrospray mode, using Full scan-AIF mode, at 35,000 resolution, between 100-800 m/z. All analytes are identified from the full scan data to within at least 5 ppm accuracy of their predicted pseudo-molecular ion [M+H]^+ m/z value. In order to obtain quantitative data standard curves are run using herbicides and herbicide glucosides synthesized as standards. Where these synthetic glucosides were not available the LC/MS assay could only be used to provide relative data.
DNA sequences, optimized for E. coli codon usage, were cloned, expressed and the various proteins purified and assayed as described in the foregoing examples. Using the UDP assay (as described in examples 1, 3 and 6) the data obtained from the Zea mays bx8 w/t protein and its variants was noisy due to relatively high background rates in DMSO reagent blanks. The values reported in the table 15 were thus monitored by LC/MS as described in example 1.

| Structure (SMILES) | rate of glucosyl transfer ([1]; 1 mM herbicide V, partly purified C-terminally his tagged enzyme) | Activity [1] | integrated peak area of beta-glucoside product [2] |
| --- | --- | --- | --- |
| CN1CC(O)N(c2cc(C(F)(F)F)ccn2)C1=O (centres unmarked) [Compound V] | less than 0.002 /s | 0.000 pmol/sec/pmol enzyme | 1.75E+08 and 1.96E+08 |
| Cc1cnc(N2C(=O)N(C)CC2O)cc1C(F)(F)F (centres unmarked) [XVIII] | – | 0.001 pmol/sec/pmol enzyme | – |
| CN1CC(O)N(c2cc(C(F)(F)F)c(Cl)cn2)C1=O (centres unmarked) [XI] | – | 0.001 pmol/sec/pmol enzyme | 6.03E+06 and 6.40E+06 |
| CON1C(=O)N(c2cc(C(F)(F)F)ccn2)C(O)[C@@H]1C (some centres unmarked) [Compound VI] | – | 0.000 pmol/sec/pmol enzyme | 6.40E+09 and 6.87E+09 |
